The values that follow come from publication PMC9127186, “Molecular Basis Underlying Hepatobiliary and Renal Excretion of Phenolic Acids of Salvia miltiorrhiza Roots (Danshen)” (Frontiers in Pharmacology, 2022).

The target of one data set is T1, rat Oct3 (Rattus norvegicus, UniProt O88446).
T1 sequence (O88446 1-551): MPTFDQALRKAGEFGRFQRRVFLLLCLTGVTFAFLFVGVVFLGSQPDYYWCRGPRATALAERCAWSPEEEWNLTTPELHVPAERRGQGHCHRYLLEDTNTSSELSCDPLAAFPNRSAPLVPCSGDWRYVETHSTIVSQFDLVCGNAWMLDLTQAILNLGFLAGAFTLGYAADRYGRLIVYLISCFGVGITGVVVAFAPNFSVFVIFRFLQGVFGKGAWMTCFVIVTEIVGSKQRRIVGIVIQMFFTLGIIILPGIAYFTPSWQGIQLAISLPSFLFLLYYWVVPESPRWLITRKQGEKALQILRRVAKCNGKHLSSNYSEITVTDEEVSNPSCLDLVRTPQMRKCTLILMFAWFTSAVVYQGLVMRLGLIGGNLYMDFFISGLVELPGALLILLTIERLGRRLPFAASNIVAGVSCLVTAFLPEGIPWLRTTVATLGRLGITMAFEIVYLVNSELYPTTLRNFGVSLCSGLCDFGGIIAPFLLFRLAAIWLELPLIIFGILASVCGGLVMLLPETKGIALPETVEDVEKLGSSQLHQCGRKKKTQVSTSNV
In words: Cellular transport assay, HEK-293 cells expressing rat Oct3. Particulars: Danshen phenolic acid at 100 μM final concentration, 10 min; rat Oct3-transfected vs mock cells.

In another data set the target is T2, rat Ntcp (Rattus norvegicus, UniProt P26435).
T2 sequence (P26435 1-362): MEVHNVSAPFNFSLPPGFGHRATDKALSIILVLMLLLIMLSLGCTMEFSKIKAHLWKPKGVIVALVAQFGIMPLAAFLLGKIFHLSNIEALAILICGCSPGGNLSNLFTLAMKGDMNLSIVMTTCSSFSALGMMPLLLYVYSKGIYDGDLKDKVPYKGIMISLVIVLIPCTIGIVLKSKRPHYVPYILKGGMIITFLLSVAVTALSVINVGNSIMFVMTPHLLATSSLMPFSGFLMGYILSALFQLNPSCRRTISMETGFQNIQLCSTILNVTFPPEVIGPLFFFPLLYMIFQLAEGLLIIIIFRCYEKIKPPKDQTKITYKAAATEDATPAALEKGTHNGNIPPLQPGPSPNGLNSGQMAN
The experiment in a line: Cellular transport assay, HEK-293 cells expressing rat Ntcp. Particulars: Danshen phenolic acid at 100 μM final concentration, 10 min; rat Ntcp-transfected vs mock cells.

The next data set addresses T3, human OCT1 (Homo sapiens, UniProt O15245).
T3 sequence (O15245 1-554): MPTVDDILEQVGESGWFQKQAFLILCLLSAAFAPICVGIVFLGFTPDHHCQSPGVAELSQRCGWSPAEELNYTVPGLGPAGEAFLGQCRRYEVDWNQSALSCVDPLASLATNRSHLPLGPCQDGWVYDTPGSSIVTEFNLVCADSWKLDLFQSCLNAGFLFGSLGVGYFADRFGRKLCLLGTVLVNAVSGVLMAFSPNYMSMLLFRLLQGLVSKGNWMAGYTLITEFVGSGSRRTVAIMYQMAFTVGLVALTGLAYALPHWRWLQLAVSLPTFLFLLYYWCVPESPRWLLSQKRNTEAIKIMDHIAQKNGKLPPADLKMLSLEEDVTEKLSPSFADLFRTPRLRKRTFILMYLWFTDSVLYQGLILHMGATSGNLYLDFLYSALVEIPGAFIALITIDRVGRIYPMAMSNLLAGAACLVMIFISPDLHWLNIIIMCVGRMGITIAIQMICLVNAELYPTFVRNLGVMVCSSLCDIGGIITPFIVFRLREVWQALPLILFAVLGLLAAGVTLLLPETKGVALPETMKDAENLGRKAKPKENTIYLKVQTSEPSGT
The experiment in a line: Cellular transport assay, HEK-293 cells expressing human OCT1. Particulars: Danshen phenolic acid at 100 μM final concentration, 10 min; human OCT1-transfected vs mock cells.

A further data set concerns the target T4, human NTCP (Homo sapiens, UniProt Q14973).
T4 sequence (Q14973 1-349): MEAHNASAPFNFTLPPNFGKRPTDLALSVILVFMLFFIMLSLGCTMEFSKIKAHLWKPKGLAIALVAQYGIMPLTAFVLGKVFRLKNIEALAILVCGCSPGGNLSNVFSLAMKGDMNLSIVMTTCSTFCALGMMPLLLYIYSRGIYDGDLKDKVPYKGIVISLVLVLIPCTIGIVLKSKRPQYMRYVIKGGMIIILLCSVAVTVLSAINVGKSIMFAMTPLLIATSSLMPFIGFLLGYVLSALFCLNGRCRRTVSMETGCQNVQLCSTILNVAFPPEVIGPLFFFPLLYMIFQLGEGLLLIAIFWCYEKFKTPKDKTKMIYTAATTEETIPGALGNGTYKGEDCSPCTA
In words: Cellular transport assay, HEK-293 cells expressing human NTCP. Particulars: Danshen phenolic acid at 100 μM final concentration, 10 min; human NTCP-transfected vs mock cells.

The next data set deals with T5, rat Oatp1a1 (Rattus norvegicus, UniProt P46720).
T5 sequence (P46720 1-670): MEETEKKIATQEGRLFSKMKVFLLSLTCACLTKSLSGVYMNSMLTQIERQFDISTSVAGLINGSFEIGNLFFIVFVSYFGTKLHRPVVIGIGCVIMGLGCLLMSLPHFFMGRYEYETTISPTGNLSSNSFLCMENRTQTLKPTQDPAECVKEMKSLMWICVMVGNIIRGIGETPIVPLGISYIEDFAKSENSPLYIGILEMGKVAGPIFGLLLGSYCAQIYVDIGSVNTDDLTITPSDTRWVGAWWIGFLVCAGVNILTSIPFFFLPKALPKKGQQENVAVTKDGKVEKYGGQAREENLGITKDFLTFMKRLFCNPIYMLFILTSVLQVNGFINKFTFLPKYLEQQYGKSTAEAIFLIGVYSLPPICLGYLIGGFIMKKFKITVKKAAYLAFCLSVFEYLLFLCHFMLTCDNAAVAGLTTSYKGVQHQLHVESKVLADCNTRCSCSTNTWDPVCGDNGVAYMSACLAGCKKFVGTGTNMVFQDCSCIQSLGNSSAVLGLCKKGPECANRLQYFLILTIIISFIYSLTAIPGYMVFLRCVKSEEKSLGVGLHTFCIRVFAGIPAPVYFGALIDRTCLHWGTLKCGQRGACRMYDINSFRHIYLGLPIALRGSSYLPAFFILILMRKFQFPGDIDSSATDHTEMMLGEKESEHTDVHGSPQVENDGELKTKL
The experiment in a line: Cellular transport assay, HEK-293 cells expressing rat Oatp1a1. The note with it: Danshen phenolic acid at 100 μM final concentration, 10 min; rat Oatp1a1-transfected vs mock cells.

As to `O=C(/C=C/c1ccc(O)c2c1[C@H](C(=O)O)[C@@H](c1ccc(O)c(O)c1)O2)O[C@H](Cc1ccc(O)c(O)c1)C(=O)O` [Lithospermic acid, lithospermic acid], the “TransportTC/TransportMC ratio (net transport ratio)” value (shortened to “TransportTC/TransportMC ratio”) on rat Oct3 is 0.81 ± 0.13; on rat Ntcp it was 1.71 ± 0.15; on human OCT1, 1.56 ± 0.26; on human NTCP it was 2.44 ± 0.13; on rat Oatp1a1, 1.41 ± 0.67.

`O=C(O)c1ccc(O)c(O)c1` [Protocatechuic acid, protocatechuic acid]: the “TransportTC/TransportMC ratio” value at rat Oct3 is reported as 0.85 ± 0.11; on rat Ntcp, 1.04 ± 0.27; at human OCT1, 1.09 ± 0.33; at human NTCP, 1.26 ± 0.15; on rat Oatp1a1, 1.66 ± 0.77.

Turning to `O=C(/C=C/c1ccc(O)c(O)c1)O[C@H](Cc1ccc(O)c(O)c1)C(=O)O` [Rosmarinic acid, rosmarinic acid], the “TransportTC/TransportMC ratio” value on rat Oct3 was determined as 0.74 ± 0.24.

Turning to `O=C(O)Cc1c(/C=C/C(=O)O[C@H](Cc2ccc(O)c(O)c2)C(=O)O)ccc(O)c1O` [Salvianolic acid D, salvianolic acid D], the “TransportTC/TransportMC ratio” value on rat Oct3 is 0.93 ± 0.15; on rat Ntcp, 1.49 ± 0.23; at human OCT1 it was 1.04 ± 0.24; on human NTCP, 2.09 ± 0.36; at rat Oatp1a1 it was 2.45 ± 1.88.

For salvianolic acid B, the “TransportTC/TransportMC ratio” value is recorded as 0.84 ± 0.31 at rat Oct3; 1.90 ± 0.02 on rat Ntcp; 1.03 ± 0.07 at human OCT1; 2.88 ± 0.21 on human NTCP; 1.91 ± 0.42 on rat Oatp1a1.
